Data published in patent US11426448B2, “Methods for treatment of erectile dysfunction with sonic hedgehog compounds” (NORTHWESTERN UNIVERSITY, priority 2018, dated 2022).

System: MPG/CN neurons
Experiment: MPG/CN organ culture with Affi-Gel beads, quantification of neurites
Type: cell-based, Sprague Dawley rats
Details: uninjured MPG/CN, three days, SHH inhibitors on Affi-Gel beads, vs DMSO or PBS

CC1=C2C[C@H]3[C@@H](CC=C4C[C@@H](O)CC[C@@]43C)[C@@H]2CC[C@]12O[C@@H]1C[C@H](C)CN[C@H]1[C@H]2C [cyclopamine]
neurite formation reduced: 5.6 fold
neurite formation reduced / inhibited: 82%
